Test results from ChEMBL document CHEMBL4706559, “New indolylarylsulfone non-nucleoside reverse transcriptase inhibitors show low nanomolar inhibition of single and double HIV-1 mutant strains” (Eur J Med Chem, 2020).

Columns and labels:
[1] = Selectivity ratio of CC50 for human MT4 cells to EC50 for antiviral activity against HIV-1 NL4-3 infected in human MT4 cells; assay type: toxicity, cell-based; conditions: read-out: Ratio CC50/EC50
[2] = tested on: Human immunodeficiency virus 1; test: Antiviral activity against HIV1 harboring RT K103N mutant infected in human MT4 cells assessed as protection against virus-induced cytopathic effect by MTT assay; assay type: functional, organism-based; conditions: Human immunodeficiency virus 1, MT4
[3] = tested on: Human immunodeficiency virus 1; test: Antiviral activity against HIV1 harboring RT Y188L mutant infected in human MT4 cells assessed as protection against virus-induced cytopathic effect by MTT assay; assay type: functional, organism-based; conditions: Human immunodeficiency virus 1, MT4
[4] = tested on: Human immunodeficiency virus 1; test: Antiviral activity against HIV1 harboring RT K103N/Y181C double mutant infected in human MT4 cells assessed as protection against virus-induced cytopathic effect by MTT assay; assay type: functional, organism-based; conditions: Human immunodeficiency virus 1, MT4
[5] = tested on: Human immunodeficiency virus 1; test: Antiviral activity against HIV-1 NL4-3 infected in human MT-4 cells assessed as virus induced cytopathic effect by MTT assay; assay type: functional, organism-based; conditions: Human immunodeficiency virus 1, NL4-3, MT4
[6] = tested on: Human immunodeficiency virus 1; test: Resistance index, ratio of EC50 for antiviral activity against HIV1 harboring RT Y188L mutant infected in human MT4 cells to EC50 for antiviral activity against HIV1 NL4-3 infected in human MT4 cells; assay type: functional
[7] = Cytotoxicity against human MT-4 cells assessed as reduction in cell viability by MTT assay; assay type: cell-based, MT4
[8] = tested on: Human immunodeficiency virus 1; test: Resistance index, ratio of EC50 for antiviral activity against HIV1 harboring RT K103N/Y181C double mutant infected in human MT4 cells to EC50 for antiviral activity against HIV1 NL4-3 infected in human MT4 cells; assay type: functional
[9] = tested on: Human immunodeficiency virus 1; test: Resistance index, ratio of EC50 for antiviral activity against HIV1 harboring RT Y181C mutant infected in human MT4 cells to EC50 for antiviral activity against HIV1 NL4-3 infected in human MT4 cells; assay type: functional
[10] = tested on: Human immunodeficiency virus 1; test: Antiviral activity against HIV1 harboring RT Y181C mutant infected in human MT4 cells assessed as protection against virus-induced cytopathic effect by MTT assay; assay type: functional, organism-based; conditions: Human immunodeficiency virus 1, MT4
[11] = Inhibition of RNA-dependent DNA polymerase activity of recombinant HIV-1 p66/p51 reverse transcriptase K103N/Y181C mutant assessed as inhibition of [3H]dTTP incorporation using poly(rA)/oligo(dT) as templates incubated for 15 mins by MicroBeta scintillation counting method; design: species or system Human immunodeficiency virus 1
[12] = biological target: Human immunodeficiency virus type 1 reverse transcriptase (Human immunodeficiency virus 1, UniProt Q72547); test: Inhibition of RNA-dependent DNA polymerase activity of wild type recombinant HIV-1 His-tagged p66/p51 reverse transcriptase assessed as inhibition of [3H]dTTP incorporation using poly(rA)/oligo(dT) as templates incubated for 15 mins by MicroBeta scintillation counting method
[13] = biological target: Human immunodeficiency virus type 1 reverse transcriptase (Human immunodeficiency virus 1, UniProt Q72547, K103N); test: Inhibition of RNA-dependent DNA polymerase activity of recombinant HIV-1 p66/p51 reverse transcriptase K103N mutant assessed as inhibition of [3H]dTTP incorporation using poly(rA)/oligo(dT) as templates incubated for 15 mins by MicroBeta scintillation counting method
[14] = Inhibition of RNA-dependent DNA polymerase activity of recombinant HIV-1 p66/p51 reverse transcriptase Y188L mutant assessed as inhibition of [3H]dTTP incorporation using poly(rA)/oligo(dT) as templates incubated for 15 mins by MicroBeta scintillation counting method; design: species or system Human immunodeficiency virus 1

Row | SMILES | selectivity ratio [1] | EC50 [2] [nM] | EC50 [3] [nM] | EC50 [4] [nM] | EC50 [5] [nM] | Ratio EC50 [6] | CC50 [7] [nM] | Ratio EC50 [8] | Ratio EC50 [9] | EC50 [10] [nM] | IC50 [11] [nM] | IC50 [12] [nM] | IC50 [13] [nM] | IC50 [14] [nM]
1 | Cc1cc(C)cc(S(=O)(=O)c2c(C(=O)NCc3cccc(O)c3)[nH]c3ccccc23)c1 | > 3640 | < 0.7 | 1270 | 1810 | < 0.7 | >1808 | > 5200 | >2584 | >30 | 21 |  |  |  | 
2 | Cc1cc(C)cc(S(=O)(=O)c2c(C(=O)NCc3ccc(CO)cc3)[nH]c3ccc(Cl)cc23)c1 | > 44400 | < 0.7 |  | 3290 | < 0.7 |  | 31100 | >4703 | >31 | 22 | 188 | 38 | 79 | 178
3 | Cc1cc(C)cc(S(=O)(=O)c2c(C(=O)Nc3ccc(CO)cc3)[nH]c3ccc(Cl)cc23)c1 | > 56600 | < 0.7 |  | 19500 | < 0.7 |  | 39600 | >27904 | >31 | 22 |  |  |  | 
4 | Cc1cc(C)cc(S(=O)(=O)c2c(C(=O)NCc3ccc(O)cc3)[nH]c3ccc(Cl)cc23)c1 | > 8930 | < 0.7 | 661 | 704 | < 0.7 | >944 | 6250 | >1006 |  | < 0.7 | 628 | 61 | 45 | 50
5 | COc1cc(CNC(=O)c2[nH]c3ccc(Cl)cc3c2S(=O)(=O)c2cc(C)cc(C)c2)ccc1O | > 47800 | < 0.6 | 220 | 1120 | < 0.6 | 367 | 28700 | 1871 | 3.3 | 2 |  |  |  | 
6 | Cc1cc(C)cc(S(=O)(=O)c2c(C(N)=O)[nH]c3ccc(Cl)cc23)c1 |  |  |  | 650 |  |  |  |  |  |  |  |  |  | 
7 | Cc1cc(C)cc(S(=O)(=O)c2c(C(=O)NC(C)c3cccc(O)c3)[nH]c3ccc(Cl)cc23)c1 (centres undefined) | > 22800 | < 0.7 | 166 | 600 | < 0.7 | 237 | 16000 | 857 | 14 | 10 |  |  |  | 
8 | O=C1Nc2ccc(Cl)cc2[C@@](C#CC2CC2)(C(F)(F)F)O1 [EFAVIRENZ] |  |  |  | > 317 |  |  | > 15800 |  |  |  |  |  |  | 
9 | Cc1cc(C)cc(S(=O)(=O)c2c(C(=O)Nc3ccccc3O)[nH]c3ccc(Cl)cc23)c1 | > 28200 | > 0.7 | 4810 | > 19700 | < 0.7 | >6881 | 19700 | >28166 | >28 | 20 |  |  |  | 
10 | Cc1cc(C)cc(S(=O)(=O)c2c(C(=O)NCc3ccc(O)c(O)c3)[nH]c3ccc(Cl)cc23)c1 | > 26200 | < 0.7 | 70 | 3240 | < 0.7 | >100 | 18300 | >4624 | >5.9 | 4.1 |  |  |  | 
11 | Cc1cc(C)cc(S(=O)(=O)c2c(C(=O)Nc3ccc(O)cc3)[nH]c3ccc(Cl)cc23)c1 | > 25800 | < 0.7 | 989 | 967 | < 0.7 | >1413 | 18100 | >1381 |  | < 0.7 | 375 | 69 | 106 | 81
12 | Cc1cc(C)cc(S(=O)(=O)c2c(C(=O)Nc3cccc(O)c3)[nH]c3ccc(Cl)cc23)c1 | > 35200 | < 0.7 | 455 | 6090 | < 0.7 | >650 | 24600 | >8698 | >62 | 44 |  |  |  | 
13 | Cc1cc(C)cc(S(=O)(=O)c2c(C(=O)NCN3CCCC3)[nH]c3ccc(Cl)cc23)c1 |  |  |  | 300 |  |  |  |  |  |  |  |  |  | 
14 | Cc1cc(C)cc(S(=O)(=O)c2c(C(=O)NCc3cc(O)ncn3)[nH]c3ccc(Cl)cc23)c1 | > 75800 | < 0.7 | 106 | 14300 | < 0.7 | >151 | > 53100 | >20385 |  | 0.7 |  |  |  | 
15 | Cc1cc(C)cc(S(=O)(=O)c2c(C(=O)NC(C)c3ccccc3O)[nH]c3ccc(Cl)cc23)c1 (centres undefined) | 31100 | < 0.7 | 190 | 662 | < 0.7 | >270 | 21800 | >946 | >27 | 19 |  |  |  | 
16 | Cc1cc(C)cc(S(=O)(=O)c2c(C(=O)NC(C)C(N)=O)[nH]c3ccc(Cl)cc23)c1 (centres undefined) |  |  |  | 700 |  |  |  |  |  |  |  |  |  | 
17 | Cc1cc(C)cc(S(=O)(=O)c2c(C(=O)NCCc3ccccc3O)[nH]c3ccc(Cl)cc23)c1 | > 34000 | < 0.7 | 207 | 331 | < 0.7 | >296 | 23800 | >473 |  | < 0.7 |  |  |  | 
18 | Cc1cc(C#N)cc(C)c1Oc1nc(Nc2ccc(C#N)cc2)nc(N)c1Br [ETRAVIRINE] |  | 0.7 | 16 | 4.6 | 16.1 |  | > 23000 |  |  | 18 | 97 |  |  | 164
19 | Cc1ccnc2c1NC(=O)c1cccnc1N2C1CC1 [NEVIRAPINE] |  | > 3760 | > 3760 | > 3760 | 112 |  | > 18800 |  |  | > 3760 |  |  |  | 
20 | NC(=O)c1[nH]c2ccc(Cl)cc2c1S(=O)(=O)c1ccccc1 [L-737126] |  |  |  | 8000 |  |  |  |  |  |  |  |  |  | 
